Experimental data taken from patent US20230293517A1, “ANTAGONIST COMPOUNDS” (AdoRx Therapeutics Limited, priority 2020, published 2023).
Read-outs that look alike come from different tables or passages of the source.

Key:
[1] = molecular target: human Adenosine A1 receptor (Homo sapiens (Human), UniProt P30542); assay: Adenosine receptor TR-FRET binding assay (A1); conditions: inhibition of binding of 100 nM CA200645, CHO cell membranes
In short: (§1)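 CHO cell membranes carrying terbium-tagged human A1, A2a, A2b or A3 receptors were incubated 2 h at room temperature with compound and CA200645 tracer (A2b 30 nM; others 100 nM). Specific binding from time-resolved FRET ratios, minus 10 μM XAC background; IC50 converted to Ki (Cheng–Prusoff).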

[2] = molecular target: human Adenosine A2a receptor (Homo sapiens (Human), UniProt P29274); assay: Adenosine receptor TR-FRET binding assay (A2a); conditions: inhibition of binding of 100 nM CA200645, CHO cell membranes
In short: as §1

[3] = molecular target: human Adenosine A2b receptor (Homo sapiens (Human), UniProt P29275); assay: Adenosine receptor TR-FRET binding assay (A2b)
In short: as §1

[4] = molecular target: human Adenosine A3 receptor (Homo sapiens (Human), UniProt P0DMS8); assay: Adenosine receptor TR-FRET binding assay (A3); conditions: inhibition of binding of 100 nM CA200645, CHO cell membranes
In short: as §1

human PBMCs = assay: CD3/CD28 stimulated IL-2 release NECA reversal assay in human PBMCs; assay type: cell-based; conditions: PBMC, 1 uM NECA, 24 hours, IL-2 in culture supernatant
Experimental: Biological Example—CD3/CD28 Stimulated IL-2 Release NECA Reversal Assay in Human PBMCs
Blood is drawn from healthy volunteers using sodium citrate as the anticoagulant (0.3% final concentration). After centrifugation of the blood over Histopaque-1077, PBMCs are collected from the Histopaque/plasma interface and washed twice in PBS (300 g for 10 mins at room temp). Cells are plated at 50,000 cells/well in 150 μl RPMI/10% FCS in 96-well cell culture plates that have been precoated with 1 ug/ml CD3 antibody. 50 μl diluted compound mix is added to the cells, to obtain final concentrations of 1 ug/ml CD28 antibody, 1 uM NECA and 0.003-10 μM adenosine receptor antagonist. Assay plates are incubated for 24 hours at 37° C. in a humidified incubator. Culture supernatant is tested for IL-2 levels using the human IL-2 Tissue Culture Kit (Meso Scale Discovery). Data for dose-response curves is calculated as % inhibition with 100% inhibition defined from no agonist control wells (+CD3/28-NECA)

[5] = tested on: CD8+T cells in human whole blood; assay: Measurement of pCREB in CD8+T cells in human whole blood; assay type: cell-based; conditions: 3 μM NECA, rolipram
Experimental: Biological Example—Measurement of pCREB in CD8+T Cells in Human Whole Blood
Heparinised human whole blood was pre-incubated at 37° C. with serial dilutions of A2a antagonists for 20 min. and the phosphodiesterase inhibitor rolipram to amplify the pCREB response. The adenosine receptor agonist NECA is then added at a final concentration of 3 μM and following a 60 min incubation the blood is fixed and red blood cells lysed. White blood cells are isolated, permeabilized and stained with directly conjugated fluorescent antibodies to phospho-CREB (Alexa Fluor 488) and CD8 (Alexa Fluor 647) and the level of phospho-CREB in CD8+T cells is measured by FACS using a BD Accuri C6 Flow Cytometer.

[6] = TR-FRET, inhibition of binding of 30 nM CA200645, CHO cell membranes

Chain of human Adenosine A2b receptor (P29275 whole entry): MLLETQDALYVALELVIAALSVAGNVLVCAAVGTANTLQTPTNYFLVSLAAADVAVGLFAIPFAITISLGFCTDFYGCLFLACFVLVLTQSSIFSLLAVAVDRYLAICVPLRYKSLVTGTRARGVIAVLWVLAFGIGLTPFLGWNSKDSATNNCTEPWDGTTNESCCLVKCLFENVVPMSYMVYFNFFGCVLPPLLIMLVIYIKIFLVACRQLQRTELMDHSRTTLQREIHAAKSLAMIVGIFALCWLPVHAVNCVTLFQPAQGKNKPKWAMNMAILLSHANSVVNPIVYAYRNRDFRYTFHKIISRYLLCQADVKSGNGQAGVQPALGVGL
Chain of human Adenosine A3 receptor (P0DMS8 whole entry): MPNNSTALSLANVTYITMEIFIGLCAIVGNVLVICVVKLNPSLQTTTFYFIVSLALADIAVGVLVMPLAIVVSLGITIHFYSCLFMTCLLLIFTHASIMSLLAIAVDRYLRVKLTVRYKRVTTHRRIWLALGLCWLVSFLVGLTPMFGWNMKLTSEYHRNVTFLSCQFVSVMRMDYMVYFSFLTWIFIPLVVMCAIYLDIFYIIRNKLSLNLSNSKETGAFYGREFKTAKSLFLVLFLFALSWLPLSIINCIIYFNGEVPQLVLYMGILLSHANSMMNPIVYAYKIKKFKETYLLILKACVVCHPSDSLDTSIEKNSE
Chain of human Adenosine A2a receptor (P29274 whole entry): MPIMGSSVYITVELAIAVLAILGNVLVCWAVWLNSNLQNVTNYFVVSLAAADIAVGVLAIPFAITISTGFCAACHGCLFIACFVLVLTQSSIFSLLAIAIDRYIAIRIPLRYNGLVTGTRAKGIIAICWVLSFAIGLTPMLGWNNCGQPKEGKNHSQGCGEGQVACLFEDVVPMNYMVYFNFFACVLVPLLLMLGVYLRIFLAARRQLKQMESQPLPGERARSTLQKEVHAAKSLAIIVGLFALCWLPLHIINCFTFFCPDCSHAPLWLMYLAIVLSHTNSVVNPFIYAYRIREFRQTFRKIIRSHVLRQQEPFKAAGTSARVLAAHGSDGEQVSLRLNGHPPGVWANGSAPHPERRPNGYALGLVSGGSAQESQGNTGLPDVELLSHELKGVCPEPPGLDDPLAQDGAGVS
Chain of human Adenosine A1 receptor (P30542 whole entry): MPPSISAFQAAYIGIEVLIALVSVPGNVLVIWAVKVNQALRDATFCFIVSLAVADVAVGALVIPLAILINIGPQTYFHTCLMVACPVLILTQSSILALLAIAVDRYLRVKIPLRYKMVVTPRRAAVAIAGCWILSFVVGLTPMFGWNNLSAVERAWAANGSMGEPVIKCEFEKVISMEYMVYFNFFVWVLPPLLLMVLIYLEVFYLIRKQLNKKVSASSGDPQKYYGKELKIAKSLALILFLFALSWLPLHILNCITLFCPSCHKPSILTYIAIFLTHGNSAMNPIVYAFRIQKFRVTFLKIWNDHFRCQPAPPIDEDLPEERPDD

| Structure (SMILES) | Ki [1] [nM] | Ki [2] [nM] | Ki [3, 6] [nM] | Ki [4] [nM] | IC50 (human PBMCs) [nM] | IC50 [5] [nM] | Ki [3] [nM] |
| --- | --- | --- | --- | --- | --- | --- | --- |
| Cc1cc(-c2sc(NC(=O)N3CCC(C)(C#N)C3)nc2-c2cccc(C#N)c2)cc(C)n1 (racemic) [Example 27, 3-Cyano-N-[4-(3-cyanophenyl)-5-(2,6-dimethyl-4-pyridyl)thiazol-2-yl]-3-methyl-pyrrolidine-1-carboxamide] | 21 | 0.41 | 0.8 | 225 | 0.9 | 80 | – |
| Cc1cc(-c2sc(NC(=O)N3CCC(C(C)(C)O)C3)nc2-c2cccc(C#N)c2)cc(Cl)n1 (stereo not drawn) [Example 2, N-[5-(2-Chloro-6-methyl-4-pyridyl)-4-(3-cyanophenyl)thiazol-2-yl]-3-(1-hydroxy-1-methyl-ethyl)pyrrolidine-1-carboxamide] | 234 | 0.4 | 1 | 849 | 2 | 280 | – |
| Cc1cc(-c2sc(NC(=O)N3CCNCC3)nc2-c2cccc(C#N)c2)cc(Cl)n1 [Example 3.1] | 94 | 3.11 | 6.6 | 267 | 13 | 1770 | – |
| Cc1cc(-c2sc(NC(=O)N3CCC(C)(O)CC3)nc2-c2cccc(C#N)c2)cc(Cl)n1 [Example 3.7] | 14 | 0.2 | 1.1 | 382 | 3.3 | 290 | – |
| Cc1cc(-c2sc(NC(=O)N3CCN[C@H](C(C)(C)O)C3)nc2-c2cccc(C#N)c2)cc(Cl)n1 [Example 3.9] | 81 | 0.49 | 2.2 | 338 | 17.9 | 470 | – |
| Cc1cc(-c2sc(NC(=O)N3CCN(C4COC4)CC3)nc2-c2cccc(C#N)c2)cc(Cl)n1 [Example 3.11] | 102 | 0.52 | 1.2 | 1300 | 10.4 | 670 | – |
| Cc1cc(-c2sc(NC(=O)N3CCS(=N)(=O)CC3)nc2-c2cccc(C#N)c2)cc(Cl)n1 [Example 3.12] | 18 | 0.25 | 1 | 531 | 8 | 600 | – |
| Cc1cc(-c2sc(NC(=O)N3CCN(C)CC3)nc2-c2cccc(C#N)c2)cc(C)n1 [Example 4, N-[4-(3-Cyanophenyl)-5-(2,6-dimethyl-4-pyridyl)thiazol-2-yl]-4-methyl-piperazine-1-carboxamide] | 60 | 1.01 | 0.7 | 1000 | 3.8 | 130 | – |
| Cc1cc(-c2sc(NC(=O)N3CCS(=N)(=O)CC3)nc2-c2cccc(C#N)c2)cc(C)n1 [Example 4.2, N-[4-(3-Cyanophenyl)-5-(2,6-dimethyl-4-pyridyl)thiazol-2-yl]-1-imino-1-oxo-1,4-thiazinane-4-carboxamide] | 28 | 0.27 | 4.4 | 881 | 7.9 | 90 | – |
| Cc1cc(-c2sc(NC(=O)N3CCN(CCO)CC3)nc2-c2cccc(C#N)c2)cc(C)n1 [Example 4.3, N-[4-(3-Cyanophenyl)-5-(2,6-dimethyl-4-pyridyl)thiazol-2-yl]-4-(2-hydroxyethyl)piperazine-1-carboxamide] | 187 | 0.7 | 3.8 | 603 | 18.2 | 170 | – |
| Cc1cc(-c2sc(NC(=O)N3CC[C@H](O)C3)nc2-c2cccc(C#N)c2)cc(C)n1 [Example 4.5, (3S)-N-[4-(3-Cyanophenyl)-5-(2,6-dimethyl-4-pyridyl)thiazol-2-yl]-3-hydroxy-pyrrolidine-1-carboxamide] | 16 | 1.54 | 1.4 | 94 | 8.5 | 160 | – |
| Cc1cc(-c2sc(NC(=O)N3CCC(F)(C#N)CC3)nc2-c2cccc(C#N)c2)cc(C)n1 [Example 4.7, 4-Cyano-N-[4-(3-cyanophenyl)-5-(2,6-dimethyl-4-pyridyl)thiazol-2-yl]-4-fluoro-piperidine-1-carboxamide] | 6 | 0.05 | 1.3 | 125 | 0.8 | 90 | – |
| Cc1cc(-c2sc(NC(=O)N3CC[C@@H](C#N)C3)nc2-c2cccc(C#N)c2)cc(C)n1 [Example 4.10, (3R)-3-Cyano-N-[4-(3-cyanophenyl)-5-(2,6-dimethyl-4-pyridyl)thiazol-2-yl]pyrrolidine-1-carboxamide] | 50 | 0.38 | 2.5 | 157 | 2.9 | 100 | – |
| Cc1cc(-c2sc(NC(=O)N3CCN4CCOCC4C3)nc2-c2cccc(C#N)c2)cc(C)n1 (stereo not drawn) [Example 4.11, N-[4-(3-Cyanophenyl)-5-(2,6-dimethyl-4-pyridyl)thiazol-2-yl]-3,4,6,7,9,9a-hexahydro-1H-pyrazino[2,1-c][1,4]oxazine-8-carboxamide] | 225 | 1.3 | 4.7 | 482 | 3.8 | 220 | – |
| Cc1cc(-c2sc(NC(=O)N3CCNC(=O)C3)nc2-c2cccc(C#N)c2)cc(C)n1 [Example 4.13, N-[4-(3-Cyanophenyl)-5-(2,6-dimethyl-4-pyridyl)thiazol-2-yl]-3-oxo-piperazine-1-carboxamide] | 50 | 1.5 | 1.7 | 195 | 14.1 | 550 | – |
| Cc1cc(-c2sc(NC(=O)N3CCN(C)C(=O)C3)nc2-c2cccc(C#N)c2)cc(C)n1 [Example 4.15, N-[4-(3-Cyanophenyl)-5-(2,6-dimethyl-4-pyridyl)thiazol-2-yl]-4-methyl-3-oxo-piperazine-1-carboxamide] | 91 | 2.3 | 1.4 | 339 | 10.3 | 650 | – |
| CC(=O)N1CCN(C(=O)Nc2nc(-c3cccc(C#N)c3)c(-c3cc(C)nc(C)c3)s2)CC1 [Example 4.17, 4-Acetyl-N-[4-(3-cyanophenyl)-5-(2,6-dimethyl-4-pyridyl)thiazol-2-yl]piperazine-1-carboxamide] | 77 | 1.9 | 2.8 | 293 | 8.5 | 370 | – |
| Cc1cc(-c2sc(NC(=O)N3CCN(S(C)(=O)=O)CC3)nc2-c2cccc(C#N)c2)cc(C)n1 [Example 4.18, N-[4-(3-cyanophenyl)-5-(2,6-dimethyl-4-pyridyl)thiazol-2-yl]-4-methylsulfonyl-piperazine-1-carboxamide] | 94 | 0.6 | 2.3 | 414 | 6.1 | 350 | – |
| Cc1cc(-c2sc(NC(=O)N3CC[C@H](S(C)(=O)=O)C3)nc2-c2cccc(C#N)c2)cc(C)n1 [Example 6.1, (3S)-N-[4-(3-Cyanophenyl)-5-(2,6-dimethyl-4-pyridyl)thiazol-2-yl]-3-methylsulfonyl-pyrrolidine-1-carboxamide] | – | 1.05 | 2.1 | 228 | 3.6 | 150 | – |
| Cc1cc(-c2sc(NC(=O)N3CC[C@@H](S(C)(=O)=O)C3)nc2-c2cccc(C#N)c2)cc(C)n1 [Example 6.9, (3R)-N-[4-(3-Cyanophenyl)-5-(2,6-dimethyl-4-pyridyl)thiazol-2-yl]-3-methylsulfonyl-pyrrolidine-1-carboxamide] | – | 0.88 | – | 412 | 4.3 | 160 | 0.7 |
| Cc1cc(-c2sc(NC(=O)N3CCOC(C(C)(C)O)C3)nc2-c2cccc(C#N)c2)cc(C)n1 (stereo not drawn) [Example 6.47, N-[4-(3-Cyanophenyl)-5-(2,6-dimethyl-4-pyridyl)thiazol-2-yl]-2-(1-hydroxy-1-methyl-ethyl)morpholine-4-carboxamide] | 38 | 0.37 | – | – | 1.9 | 80 | 2.5 |
